# Measurements published in US20250302842A1, “HETEROCYCLIC COMPOUNDS USEFUL FOR TREATMENT OF CANCERS” (JUBILANT EPIPAD LLC, priority 2020, published 2025).
# Columns and labels:
# PAD4 enzyme [1] = target: T1, PAD4 enzyme (Homo sapiens (Human), UniProt Q9UM07); experiment: Ammonia Release Biochemical Assay (citrullination detected via ammonia release); conditions: BAEE substrate, 60-min preincubation, read-out: NH3 release
# Protocol: Ammonia Release Biochemical Assay
# Citrullination assay was detected via ammonia release. PAD4 enzyme was diluted to 120 nM in assay buffer (100 mM HEPES, 50 mM NaCl, 2 mM DDT, 0.6 mg/mL BSA, pH 7.4) added to wells containing various concentration of compound or DMSO vehicle (1% final) in black 384 well plate. Following a 60-min preincubation at room temperature, the reaction was initiated by the addition of substrate (1.5 mM BAEE in 200 mM HEPES, 50 mM NaCl, 350 uM CaCl2, 2 mM, pH 7.4). The reaction was stopped after 60 min by addition of stop/detection buffer containing 50 mM EDTA, 2.6 mM of o-phthaladehyde and 2.6 mM DTT. Assay was incubated at room temperature for 90 min before measuring fluorescence's (2ex 405/2em 460 nm) on Tecan reader. IC50 was calculated using XL-fit software model 205. (Ref: Nat Chem Biol. 2015 March;11 (3): 189-91).
# PAD4 enzyme [2] = target: T1, PAD4 enzyme; experiment: FP Binding assay; conditions: fluorescein labelled probe JPAD-00085, 60 minutes
# Protocol: Binding of compounds with PAD4 enzyme was detected by FP assay. PAD4 enzyme was diluted to 1 uM in assay buffer (100 mM HEPES, 50 mM NaCl, 1 mM DTT, 5% Glycerol and 1 mM CHAPS) and added to wells containing various concentration of compounds or DMSO vehicle (1%) in a 384 well black plate. 10 nM of fluorescein labelled probe (JPAD-00085) was added to the plate. Assay plate was incubated for 60 minutes at room temperature before measuring FP reading at FP module (ex 485/2em 535 nm) on Pherastar. IC50 was calculated using XL-fit software model 205. (Ref: Nat Chem Biol. 2015 March; 11 (3): 189-91).
# T1 sequence (Q9UM07 whole entry): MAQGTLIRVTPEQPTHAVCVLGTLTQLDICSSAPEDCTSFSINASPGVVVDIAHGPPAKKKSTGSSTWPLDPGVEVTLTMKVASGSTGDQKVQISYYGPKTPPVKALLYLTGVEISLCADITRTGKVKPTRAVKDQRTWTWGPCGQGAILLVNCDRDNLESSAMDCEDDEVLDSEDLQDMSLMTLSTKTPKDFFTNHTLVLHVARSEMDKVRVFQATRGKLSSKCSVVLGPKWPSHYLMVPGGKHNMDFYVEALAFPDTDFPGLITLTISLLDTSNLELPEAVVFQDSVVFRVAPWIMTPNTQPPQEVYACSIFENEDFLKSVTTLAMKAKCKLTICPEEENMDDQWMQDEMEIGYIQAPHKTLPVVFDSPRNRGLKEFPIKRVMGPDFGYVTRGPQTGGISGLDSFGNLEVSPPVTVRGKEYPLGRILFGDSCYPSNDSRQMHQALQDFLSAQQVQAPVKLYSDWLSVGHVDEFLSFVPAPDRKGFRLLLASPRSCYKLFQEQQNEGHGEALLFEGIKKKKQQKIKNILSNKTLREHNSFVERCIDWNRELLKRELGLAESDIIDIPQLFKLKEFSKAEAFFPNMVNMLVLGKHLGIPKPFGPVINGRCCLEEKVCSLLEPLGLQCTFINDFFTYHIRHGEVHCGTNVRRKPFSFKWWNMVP
Structure (SMILES),IC50 (PAD4 enzyme [1]),IC50 (PAD4 enzyme [2])
"NCC1CCCCN1C(=O)c1cc2c3c(c1)nc(-c1cc4ccccc4n1CC1CC1)n3CCO2 (stereo not shown) [Example 4, (2-(aminomethyl)piperidin-1-yl)(2-(1-(cyclopropylmethyl)-1H-indol-2-yl)-3,4-dihydro-5-oxa-1,2a-diazaacenaphthylen-7-yl)methanone]",–,≥ 10000 nM
"N[C@@H]1CCCN(C(=O)c2cc3c4c(c2)nc(-c2cc5ccccc5n2Cc2ccncc2)n4CCO3)C1 [Example 10, (R)-(3-aminopiperidin-1-yl)(2-(1-(pyridin-4-ylmethyl)-1H-indol-2-yl)-3,4-dihydro-5-oxa-1,2a-diazaacenaphthylene-7-yl)methanone]",–,≤ 1000 nM
"N[C@@H]1CCCN(C(=O)c2cc3c4c(c2)nc(-c2cc5ccccc5n2Cc2ccccn2)n4CCO3)C1 [Example 11, (R)-(3-aminopiperidin-1-yl)(2-(1-(pyridine-2-ylmethyl)-1H-indol-2-yl)-3,4-dihydro-5-oxa-1,2a-diazaacenaphthylen-7-yl)methanone]",–,≤ 1000 nM
"CCc1c(-c2nc3cc(C(=O)N4CCC[C@@H](N)C4)cc4c3n2CCO4)sc2ccccc12 [Example 12, (R)-(3-aminopiperidin-1-yl)(2-(3-ethylbenzo[b]thiophen-2-yl)-3,4-dihydro-5-oxa-1,2a-diazaacenaphthylen-7-yl)methanone]",–,≤ 1000 nM
"N[C@@H]1CCCN(C(=O)c2cc3c4c(c2)nc(-c2cc5ccccc5n2Cc2ccccc2F)n4CCO3)C1 [Example 14, (R)-(3-aminopiperidin-1-yl)(2-(1-(2-fluorobenzyl)-1H-indol-2-yl)-3,4-dihydro-5-oxa-1,2a-diazaacenaphthylene-7-yl)methanone]",–,≤ 1000 nM
"COc1ccc(Cn2c(-c3nc4cc(C(=O)N5CCC[C@@H](N)C5)cc5c4n3CCO5)cc3ccccc32)cc1 [Example 19, (R)-(3-aminopiperidin-1-yl)(2-(1-(4-methoxybenzyl)-1H-indol-2-yl)-3,4-dihydro-5-oxa-1,2a-diazaacenaphthylen-7-yl)methanone]",–,≤ 1000 nM
"COc1ccc(Cn2c(-c3nc4cc(C(=O)N5CCC[C@@H](N)C5)cc5c4n3CCO5)cc3cccc(Cl)c32)cc1 [Example 39, (R)-(3-aminopiperidin-1-yl)(2-(7-chloro-1-(4-methoxybenzyl)-1H-indol-2-yl)-3,4-dihydro-5-oxa-1,2a-diazaacenaphthylen-7-yl)methanone]",≤ 1000 nM,–
"N[C@@H]1CCCN(C(=O)c2cc3c4c(c2)nc(-c2cc5cc(F)ccc5n2CC2CC2)n4CCN3)C1 [Example 64, R-(3-aminopiperidin-1-yl)(2-(1-(cyclopropylmethyl)-5-fluoro-1H-indol-2-yl)-5,6-dihydro-4H-imidazo[1,5,4-de]quinoxalin-8-yl)methanone]",–,≤ 1000 nM
"CN1CCn2c(-c3cc4ccccc4n3CC3CC3)nc3cc(C(=O)N4CCC[C@@H](N)C4)cc1c32 [Example 72, R-(3-aminopiperidin-1-yl)(2-(1-(cyclopropylmethyl)-1H-indol-2-yl)-6-methyl-5,6-dihydro-4H-imidazo[1,5,4-de]quinoxalin-8-yl)methanone]",–,≤ 1000 nM
"COc1ccc2cc(-c3nc4cc(C(=O)N5CCC[C@@H](N)C5)cc5c4n3CCN5)n(CC3CC3)c2c1 [Example 73, (R)-(3-aminopiperidin-1-yl)(2-(1-(cyclopropylmethyl)-6-methoxy-1H-indol-2-yl)-5,6-dihydro-4H-imidazo[1,5,4-de]quinoxalin-8-yl)methanone]",–,≤ 1000 nM
"N[C@@H]1CCCN(C(=O)c2cc3c4c(c2)nc(-c2cc5cc(F)c(F)cc5n2CC2CC2)n4CCN3)C1 [Example 77, (R)-(3-aminopiperidin-1-yl)(2-(1-(cyclopropylmethyl)-5,6-difluoro-1H-indol-2-yl)-5,6-dihydro-4H-imidazo[1,5,4-de]quinoxalin-8-yl)methanone]",–,≤ 1000 nM

# Next, values leading:
IC50 (PAD4 enzyme [1]),IC50 (PAD4 enzyme [2]),Structure (SMILES)
≤ 1000 nM,–,"N[C@@H]1CCCN(C(=O)c2cc3c4c(c2)nc(-c2cc5ccccc5n2CC2CC2)n4CCO3)C1 [Example 1, (R)-(3-aminopiperidin-1-yl)(2-(1-(cyclopropylmethyl)-1H-indol-2-yl)-3,4-dihydro-5-oxa-1,2a-diazaacenaphthylen-7-yl)methanone]"
–,≤ 1000 nM,"Cc1cccc2cc(-c3nc4cc(C(=O)N5CCC[C@@H](N)C5)cc5c4n3CCO5)n(CC3CC3)c12 [Example 8, (R)-(3-aminopiperidin-1-yl)(2-(1-(cyclopropylmethyl)-7-methyl-1H-indol-2-yl)-3,4-dihydro-5-oxa-1,2a-diazaacenaphthylen-7-yl)methanone]"
≤ 1000 nM,–,"N[C@@H]1CCCN(C(=O)c2cc3c4c(c2)nc(-c2cc5ccccc5n2CC2CCC2)n4CCO3)C1 [Example 41, (R)-(3-aminopiperidin-1-yl)(2-(1-(cyclobutylmethyl)-1H-indol-2-yl)-3,4-dihydro-5-oxa-1,2a-diazaacenaphthylen-7-yl)methanone]"
≤ 1000 nM,–,"N[C@@H]1CCCN(C(=O)c2cc3c4c(c2)nc(-c2cc5cccc(Cl)c5n2CC2CCC2)n4CCO3)C1 [Example 53, (R)-(3-aminopiperidin-1-yl)(2-(7-chloro-1-(cyclobutylmethyl)-1H-indol-2-yl)-3,4-dihydro-5-oxa-1,2a-diazaacenaphthylen-7-yl)methanone]"
–,≤ 1000 nM,"N[C@@H]1CCCN(C(=O)c2cc3c4c(c2)nc(-c2cc5ccccc5n2CC2CC2)n4CCN3)C1 [Example 63, (R)-(3-aminopiperidin-1-yl)(2-(1-(cyclopropylmethyl)-1H-indol-2-yl)-5,6-dihydro-4H-imidazo[1,5,4-de]quinoxalin-8-yl)methanone]"
